For one test, the system named is FoxM1. As to the kind of experiment: FoxM1-responsive firefly luciferase reporter assay in C3-Luc cells. The note with it: C3-Luc cells without doxycycline induction, increasing concentration. It is filed as cell-based, human. Here is the method:
FIG. 6. Thiostrepton and Siomycin A both inhibit FoxM1 transcriptional activity. […] The next day, the luciferase activity was measured with the Dual-Luciferase reporter assay system (E1910; Promega) according to the manufacturer's instructions.
The development of U2OS clone C3 cell line with doxycyclin inducible FoxM1-GFP fusion protein has been described before (17). This cell line was transfected with a plasmid expressing firefly luciferase under the control of 6× FoxM1 responsive (FoxRE) promoter (17), along with pcDNA3.1 (Invitrogen, Carlsbad, Calif.) plasmid that expresses neomycin phospho-transferase. […] This clone was further transfected with pRL-CMV (Promega) that expresses renilla luciferase along with pLPCX-puro (Clontech), and the cells were selected in 2 μg/ml puromycin. This cell line which expresses FoxM1-dependent firefly luciferase and constitutive renilla luciferase was named as C3-Luc and used for the screening of compound libraries (Challenge set and Diversity set) from the National Cancer Institute.
For high-throughput screening, the C3-Luc cells were grown in 96-well plates and treated overnight with a combination of 1 μg/ml doxycycline and 10 μM of compounds from the library. Next day, the firefly and renilla luciferase activities were measured with the Dual Glo system (E2940; Promega).
For the other luciferase assay experiments, the cells were treated as indicated in the FIG. 1 legend and the luciferase activity was measured using the Dual Luciferase reporter assay system (E1910; Promega) according to the manufacturer's instructions.

A further test relates to survivin, and p21^WAF1. As to the kind of experiment: Immunoblot of survivin and p21WAF1 in C3-Luc cells. In kind it is cell-based, human. The note with it: 24 hrs. Here is the method: FIG. 2. Siomycin A inhibits endogenous FoxM1 transcriptional activity. (A) C3-Luc cells without doxycycline induction, were treated with increasing dose of Siomycin A and luciferase activity was determined as described in Example 1. (B) C3-Luc cells treated either with DMSO (control) or Siomycin A were harvested 24 hrs later and the RNA was subjected to real-time RT-PCR for quantitation of mRNA levels of FoxM1 target genes Cdc25B, Survivin, and CENPB. (C) C3-Luc cells treated as indicated were harvested 24 hrs later and used for immunoblot analysis to determine the levels of survivin, and p21^WAF1. β-actin protein levels were used as loading control.
(§1) Immunoblotting was performed as described (18-20) with antibodies specific for p21 (556431; BD Pharmingen), survivin (sc-10811; Santa Cruz), cleaved caspase-3 (9664; Cell Signaling), and β-actin (A5441; Sigma) antibodies. Immunoblot for FoxM1 was done using the previously generated rabbit antisera (2), and phospho-FoxM1 was detected using the MPM2 monoclonal antibody (Upstate Biotechnology) which recognizes the phosphorylated protein sequence phosphoserine/phosphothreonine-proline.
(In general: Immunoblotting shows a protein as a band on a membrane.)

Another test concerns C3-Luc cells. As to the kind of experiment: Soft agar assay (anchorage-independent growth). In kind it is cell-based, human. The note with it: 10 μM, 1 μg/mL doxycycline, 4 weeks. On the procedure: The assay was done as described previously (21, 22). Briefly C3-Luc cells were plated subconfluently in six-well plates in 0.7% agarose on a 1.4% agarose bed in the presence or absence of 10 μM of Siomycin A and 1 μg/mL of doxycycline. Three times a week, the tissue-culture medium containing these agents was replaced. After 4 weeks, cell colonies that were larger than 1 mm in size were scored.

The test system of test [1] is SV40-transformed MRC-5 human fetal lung fibroblasts. Description: Apoptosis assay (DAPI staining, caspase-3 and survivin immunoblot) in transformed fibroblasts. It is filed as cell-based. The settings on record: SV40-transformed cells. Here is the method:
(§2) FIG. 4. Anti-cancer properties of Siomycin A. (A) Representative photographs from soft agar experiment as described in Example 1 are shown. (B) Number of colonies in the soft agar were quantitated and plotted in the form of bar graphs. (C) Wild type and SV40-transformed MRC-5 human fetal lung fibroblasts were treated with indicated concentrations of Siomycin A for 48 hrs. Photographs from phase contrast microscopy (top panel) and fluorescent microscopy after DAPI staining (bottom panel) are shown. (D) Apoptotic nuclei from normal and SV40-transformed MRC-5 fibroblasts treated with indicated concentrations of Siomycin A for 24 hrs were scored after DAPI staining and percentage cell death (mean±sd; n=3) is shown. (E) Wild type and SV40-transformed MRC-5 fibroblasts were treated with Siomycin A as indicated for 48 hrs and the cell lysates were used for immunoblotting and probed for levels of survivin and cleaved caspase-3.
as §1
(§3) Apoptosis was detected by DAPI (4′,6-diamidino-2-phenylindole) staining. All treatments were done in triplicates in 6-well plates and cells were stained with DAPI and visualized by fluorescent microscopy. Four random fields for each sample were photographed and at least 500 cells per field were counted to estimate apoptosis. The data is represented as mean±sd.

Test [2] relates to Wild type MRC-5 human fetal lung fibroblasts. Description: Apoptosis assay (DAPI staining, caspase-3 and survivin immunoblot) in normal fibroblasts. It is filed as cell-based. Here is the method: as §2, §1, §3
Test [3] relates to Liver cancer cell lines Huh7, Hep-3B and SK-Hep. As to the kind of experiment: FoxM1 and cleaved caspase-3 immunoblot in liver cancer cell lines. In kind it is cell-based, human. The note with it: 10 μM, 48 hrs. On the procedure: FIG. 9. […] Liver cancer cell lines Huh7, Hep-3B and SK-Hep were treated with 10 μM Siomycin A and thiostrepton, respectively, for 48 hrs, and the cell lysates were analyzed for the levels of FoxM1 and cleaved caspase-3 by immunoblotting.
as §1
First, we treated liver cancer cell lines Huh7, Hep-3B and SK-Hep that have deleted or mutant p53 with these compounds for 48 hrs, and the cell lysates were analyzed for the levels of FoxM1 and cleaved caspase-3 by immunoblotting.

Test [4] deals with Leukemia cell lines CEM, HL60 and U937. As to the kind of experiment: FoxM1 and cleaved caspase-3 immunoblot in leukemia cell lines. In kind it is cell-based, human. The note with it: 5 μM, 48 hrs. Here is the method:
FIG. 10. […] Leukemia cell lines CEM, HL60 and U937 were treated with 5 μM Siomycin A and thiostrepton, respectively, for 48 hrs and the cell lysates were analyzed for the levels of FoxM1 and cleaved caspase-3 by immunoblotting.
as §1
Next we treated leukemia cell lines with mutant p53 CEM, HL60 and U937 with 5 μM of these compounds for 48 hrs and the cell lysates were analyzed for the levels of FoxM1 and cleaved caspase-3 by immunoblotting.

Test [5] relates to NB7 and NB7-casp8 neuroblastoma cells. Description: FoxM1 and cleaved caspase-3 immunoblot in neuroblastoma cells. In kind it is cell-based. The note with it: 24 hrs. Here is the method:
FIG. 11. […] Cells were treated with Siomycin A, thiostrepton or DMSO, harvested 24 hrs later and the lysates were used to determine proteins levels by immunoblotting with antibodies specific for FoxM1, cleaved caspase-3 and β-actin (AS441, Sigma).

[6] abbreviates: normal cells, 48 hrs, immunoblot.

In the case of `C=C(NC(=O)C(=C)NC(=O)c1csc(C2=N[C@@H]3c4csc(n4)[C@H]4NC(=O)c5csc(n5)[C@H]([C@](C)(O)[C@@H](C)O)NC(=O)[C@H]5CSC(=N5)/C(=C/C)NC(=O)[C@H]([C@@H](C)O)NC(=O)c5csc(n5)[C@]3(CC2)NC(=O)[C@H](C)NC(=O)C(=C)NC(=O)C(=C)NC(=O)[C@H](C(C)C)N[C@@H]2C=Cc3c([C@H](C)O)cc(nc3[C@H]2O)C(=O)O[C@@H]4C)n1)C(N)=O` [Siomycin A], the “firefly luciferase activity conferred by the FoxM1-responsive promoter (endogenous FoxM1)” value with FoxM1 was “dose-dependent decrease”. Besides, in the test on survivin, and p21^WAF1, the “p21^WAF1 protein levels” value is “increase in its protein levels”. Further, the “protein levels of survivin” value in the test on survivin, and p21^WAF1 is recorded as “dramatically reduced”. The “anchorage-independent growth (number of colonies on soft agar)” value in the test with C3-Luc cells is on record as “dramatically reduced the anchorage-independent growth to less than basal untreated value”. The “cleavage of caspase-3” value in test [1] (48 hrs, immunoblot) is “showed cleavage of caspase-3”; in test [2] (setting [6]) it was “but not normal cells showed cleavage of caspase-3”. For the same compound, the survivin levels entry in test [1] (48 hrs, immunoblot) was “effectively repress survivin levels”; in test [2] (setting [6]) it was “effectively repress survivin levels”. Also, the “apoptosis / cell death” value in test [1] (forty-eight hours after treatment) is “dose dependent apoptosis”; in test [2] (untransformed normal cells, forty-eight hours after treatment), “did not exhibit significant cell death”. The FoxM1 protein expression entry is “repress FoxM1 protein expression” in test [3] and “inhibit FoxM1 protein expression” in test [5] (immunoblot). In addition, the “apoptosis (cleaved caspase-3)” value in test [3] was “induce apoptosis”; in test [4], “induce apoptosis”; in test [5] (NB7 and NB7 with reconstituted caspase-8), “induce apoptosis in these neuroblastoma cells independently from caspase-8”. The FoxM1 expression result in test [4] is recorded as “inhibit FoxM1 expression”.

Values taken from US8029980B2, “Identification and use of agents that modulate oncogenic transcription agent activity” (The Board of Trustees of the University of Illinois, priority 2006, dated 2011).
